Laboratory results reported in publication PMC6199744, “Development of Chemical Proteomics for the Folateome and Analysis of the Kinetoplastid Folateome” (ACS Infectious Diseases, 2018).

Experiments:
Format in all cases: binding
[1] = molecular target: T1, HeLa cell extract proteins (Homo sapiens, UniProt O60664); details: protein M6PRBP1; HeLa
T1 construct: endogenous in cells; host or cells: HeLa cell extract
T1 sequence (O60664 1-434): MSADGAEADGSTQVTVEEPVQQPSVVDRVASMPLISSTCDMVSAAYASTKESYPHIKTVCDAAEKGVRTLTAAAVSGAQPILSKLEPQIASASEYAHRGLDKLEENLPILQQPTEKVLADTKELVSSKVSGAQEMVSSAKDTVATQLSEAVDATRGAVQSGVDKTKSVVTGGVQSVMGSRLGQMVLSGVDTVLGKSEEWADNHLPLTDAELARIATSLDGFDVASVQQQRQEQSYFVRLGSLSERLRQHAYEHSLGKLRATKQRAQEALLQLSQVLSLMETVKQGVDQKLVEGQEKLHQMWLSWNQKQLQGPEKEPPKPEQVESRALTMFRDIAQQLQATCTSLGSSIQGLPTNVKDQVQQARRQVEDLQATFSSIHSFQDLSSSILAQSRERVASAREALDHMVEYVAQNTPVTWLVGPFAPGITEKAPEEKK

[2] = molecular target: T2, HeLa cell extract proteins (Homo sapiens, UniProt Q00839); details: protein HNRNPU; HeLa
T2 construct: endogenous in cells; host or cells: HeLa cell extract

[3] = molecular target: T3, HeLa cell extract proteins (Homo sapiens, UniProt P37802); details: HeLa; protein TAGLN2
T3 construct: endogenous in cells; host or cells: HeLa cell extract

[4] = molecular target: T4, HeLa cell extract proteins (Homo sapiens, UniProt P09622); details: HeLa; captured protein DLD
T4 construct: endogenous in cells; host or cells: HeLa cell extract
T4 sequence (P09622 36-509): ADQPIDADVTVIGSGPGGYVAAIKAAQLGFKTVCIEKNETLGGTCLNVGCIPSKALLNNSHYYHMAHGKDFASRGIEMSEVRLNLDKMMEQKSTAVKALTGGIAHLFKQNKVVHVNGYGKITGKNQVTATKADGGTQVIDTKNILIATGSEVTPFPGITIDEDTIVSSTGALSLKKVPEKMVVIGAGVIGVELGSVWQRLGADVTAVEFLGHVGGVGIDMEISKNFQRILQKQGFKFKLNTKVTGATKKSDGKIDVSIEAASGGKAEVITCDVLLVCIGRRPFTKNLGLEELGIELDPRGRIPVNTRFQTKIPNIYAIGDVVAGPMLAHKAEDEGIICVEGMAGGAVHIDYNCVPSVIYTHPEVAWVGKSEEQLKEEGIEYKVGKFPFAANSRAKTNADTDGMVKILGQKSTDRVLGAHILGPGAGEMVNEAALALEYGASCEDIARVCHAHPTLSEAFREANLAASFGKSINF

[5] = molecular target: T5, HeLa cell extract proteins (Homo sapiens, UniProt Q92616); details: HeLa; captured protein GCN1L1
T5 construct: endogenous in cells; host or cells: HeLa cell extract

[6] = molecular target: T6, HeLa cell extract proteins (Homo sapiens, UniProt P50395); details: protein GDI2; HeLa
T6 construct: endogenous in cells; host or cells: HeLa cell extract
T6 sequence (P50395 1-445): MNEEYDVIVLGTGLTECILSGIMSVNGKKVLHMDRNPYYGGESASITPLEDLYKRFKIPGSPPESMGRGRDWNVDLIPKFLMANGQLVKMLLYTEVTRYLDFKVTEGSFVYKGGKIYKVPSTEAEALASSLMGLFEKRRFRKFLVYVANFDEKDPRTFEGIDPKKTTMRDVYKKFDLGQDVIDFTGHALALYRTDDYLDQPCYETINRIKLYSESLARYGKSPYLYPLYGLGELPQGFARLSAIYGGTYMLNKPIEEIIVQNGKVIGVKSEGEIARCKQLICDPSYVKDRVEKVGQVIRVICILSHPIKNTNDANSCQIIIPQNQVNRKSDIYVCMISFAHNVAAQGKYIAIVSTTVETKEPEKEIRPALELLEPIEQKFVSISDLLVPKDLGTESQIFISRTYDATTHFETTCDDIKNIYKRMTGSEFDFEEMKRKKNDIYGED

[7] = molecular target: T7, HeLa cell extract proteins (Homo sapiens, UniProt P24534); details: protein EEF1B2; HeLa
T7 construct: endogenous in cells; host or cells: HeLa cell extract
T7 sequence (P24534 1-225): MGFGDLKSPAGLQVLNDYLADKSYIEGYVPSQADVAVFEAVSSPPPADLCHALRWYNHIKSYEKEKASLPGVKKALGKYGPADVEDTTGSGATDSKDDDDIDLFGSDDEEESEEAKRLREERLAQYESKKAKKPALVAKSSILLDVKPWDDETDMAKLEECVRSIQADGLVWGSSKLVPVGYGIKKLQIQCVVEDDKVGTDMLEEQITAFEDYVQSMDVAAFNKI

[8] = molecular target: T8, HeLa cell extract proteins (Homo sapiens, UniProt O43148); details: HeLa; captured protein RNMT
T8 construct: endogenous in cells; host or cells: HeLa cell extract

[9] = molecular target: T9, HeLa cell extract proteins (Homo sapiens, UniProt Q53GQ0); details: protein HSD17B12; HeLa
T9 construct: endogenous in cells; host or cells: HeLa cell extract
T9 sequence (Q53GQ0 1-312): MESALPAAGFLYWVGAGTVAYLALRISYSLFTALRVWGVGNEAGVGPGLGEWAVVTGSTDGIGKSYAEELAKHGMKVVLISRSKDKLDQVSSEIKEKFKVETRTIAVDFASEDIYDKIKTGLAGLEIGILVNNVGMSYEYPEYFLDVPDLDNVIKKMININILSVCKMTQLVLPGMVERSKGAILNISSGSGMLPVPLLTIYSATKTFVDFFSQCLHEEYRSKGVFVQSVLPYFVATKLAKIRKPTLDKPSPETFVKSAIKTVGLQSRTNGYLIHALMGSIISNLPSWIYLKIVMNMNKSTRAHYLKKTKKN

[10] = molecular target: T10, HeLa cell extract proteins (Homo sapiens, UniProt P23526); details: HeLa; protein AHCY
T10 construct: endogenous in cells; host or cells: HeLa cell extract

[11] = molecular target: T11, HeLa cell extract proteins (Homo sapiens, UniProt P30153); details: HeLa; protein PPP2R1A
T11 construct: endogenous in cells; host or cells: HeLa cell extract

[12] = molecular target: T12, HeLa cell extract proteins (Homo sapiens, UniProt Q06830); details: HeLa; protein PRDX1
T12 construct: endogenous in cells; host or cells: HeLa cell extract
T12 sequence (Q06830 1-199): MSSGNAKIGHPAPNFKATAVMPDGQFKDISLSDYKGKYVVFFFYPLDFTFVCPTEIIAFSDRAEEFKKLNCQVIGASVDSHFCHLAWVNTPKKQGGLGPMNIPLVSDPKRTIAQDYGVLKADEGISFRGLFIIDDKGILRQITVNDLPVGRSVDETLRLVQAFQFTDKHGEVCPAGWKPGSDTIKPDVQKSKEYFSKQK

[13] = molecular target: T13, HeLa cell extract proteins (Homo sapiens, UniProt Q08209); details: HeLa; protein PPP3CA
T13 construct: endogenous in cells; host or cells: HeLa cell extract

[14] = molecular target: T14, HeLa cell extract proteins (Homo sapiens, UniProt Q9H1A4); details: HeLa; protein ANAPC1 (ANAPHASE-PROMOTING COMPLEX SUBUNIT 1)
T14 construct: endogenous in cells; host or cells: HeLa cell extract

T3 sequence (P37802 whole entry): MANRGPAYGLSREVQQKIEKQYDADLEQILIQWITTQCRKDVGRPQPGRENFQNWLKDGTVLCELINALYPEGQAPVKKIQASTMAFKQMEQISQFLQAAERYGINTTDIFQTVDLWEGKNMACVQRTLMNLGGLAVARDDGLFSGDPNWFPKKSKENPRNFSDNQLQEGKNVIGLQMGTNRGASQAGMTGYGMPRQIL
T2 sequence (Q00839 whole entry): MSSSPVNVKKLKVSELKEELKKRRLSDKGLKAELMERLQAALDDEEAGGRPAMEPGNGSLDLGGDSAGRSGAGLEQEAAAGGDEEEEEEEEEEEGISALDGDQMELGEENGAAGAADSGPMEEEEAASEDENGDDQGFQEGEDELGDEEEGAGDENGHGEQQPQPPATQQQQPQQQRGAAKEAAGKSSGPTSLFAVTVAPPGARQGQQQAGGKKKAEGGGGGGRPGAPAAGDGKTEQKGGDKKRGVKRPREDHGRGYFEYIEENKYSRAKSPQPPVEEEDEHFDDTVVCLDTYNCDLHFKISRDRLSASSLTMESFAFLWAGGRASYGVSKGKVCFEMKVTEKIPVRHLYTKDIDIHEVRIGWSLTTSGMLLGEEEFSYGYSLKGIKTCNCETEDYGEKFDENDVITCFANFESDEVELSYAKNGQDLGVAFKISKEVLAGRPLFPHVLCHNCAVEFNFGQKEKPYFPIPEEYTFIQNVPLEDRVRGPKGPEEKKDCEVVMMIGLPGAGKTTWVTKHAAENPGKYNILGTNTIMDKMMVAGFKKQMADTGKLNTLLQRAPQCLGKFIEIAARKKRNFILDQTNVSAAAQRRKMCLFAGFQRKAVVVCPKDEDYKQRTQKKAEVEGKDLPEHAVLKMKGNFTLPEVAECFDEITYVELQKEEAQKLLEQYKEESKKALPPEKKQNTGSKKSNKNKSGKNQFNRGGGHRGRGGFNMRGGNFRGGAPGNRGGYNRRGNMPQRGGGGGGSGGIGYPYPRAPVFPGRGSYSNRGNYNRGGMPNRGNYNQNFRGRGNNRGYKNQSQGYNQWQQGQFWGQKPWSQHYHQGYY
T8 sequence (O43148 whole entry): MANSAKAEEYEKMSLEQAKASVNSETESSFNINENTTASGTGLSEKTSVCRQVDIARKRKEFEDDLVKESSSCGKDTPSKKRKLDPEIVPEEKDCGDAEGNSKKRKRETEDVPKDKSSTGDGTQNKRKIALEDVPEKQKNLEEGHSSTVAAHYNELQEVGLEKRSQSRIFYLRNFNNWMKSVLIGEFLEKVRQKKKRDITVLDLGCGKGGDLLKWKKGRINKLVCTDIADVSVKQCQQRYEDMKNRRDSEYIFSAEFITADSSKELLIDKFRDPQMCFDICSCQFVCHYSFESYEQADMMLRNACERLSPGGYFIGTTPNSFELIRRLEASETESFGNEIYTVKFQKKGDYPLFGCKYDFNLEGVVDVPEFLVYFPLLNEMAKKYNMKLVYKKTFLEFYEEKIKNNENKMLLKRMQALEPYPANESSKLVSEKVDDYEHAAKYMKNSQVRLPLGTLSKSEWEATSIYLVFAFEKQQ
T5 sequence (Q92616 whole entry): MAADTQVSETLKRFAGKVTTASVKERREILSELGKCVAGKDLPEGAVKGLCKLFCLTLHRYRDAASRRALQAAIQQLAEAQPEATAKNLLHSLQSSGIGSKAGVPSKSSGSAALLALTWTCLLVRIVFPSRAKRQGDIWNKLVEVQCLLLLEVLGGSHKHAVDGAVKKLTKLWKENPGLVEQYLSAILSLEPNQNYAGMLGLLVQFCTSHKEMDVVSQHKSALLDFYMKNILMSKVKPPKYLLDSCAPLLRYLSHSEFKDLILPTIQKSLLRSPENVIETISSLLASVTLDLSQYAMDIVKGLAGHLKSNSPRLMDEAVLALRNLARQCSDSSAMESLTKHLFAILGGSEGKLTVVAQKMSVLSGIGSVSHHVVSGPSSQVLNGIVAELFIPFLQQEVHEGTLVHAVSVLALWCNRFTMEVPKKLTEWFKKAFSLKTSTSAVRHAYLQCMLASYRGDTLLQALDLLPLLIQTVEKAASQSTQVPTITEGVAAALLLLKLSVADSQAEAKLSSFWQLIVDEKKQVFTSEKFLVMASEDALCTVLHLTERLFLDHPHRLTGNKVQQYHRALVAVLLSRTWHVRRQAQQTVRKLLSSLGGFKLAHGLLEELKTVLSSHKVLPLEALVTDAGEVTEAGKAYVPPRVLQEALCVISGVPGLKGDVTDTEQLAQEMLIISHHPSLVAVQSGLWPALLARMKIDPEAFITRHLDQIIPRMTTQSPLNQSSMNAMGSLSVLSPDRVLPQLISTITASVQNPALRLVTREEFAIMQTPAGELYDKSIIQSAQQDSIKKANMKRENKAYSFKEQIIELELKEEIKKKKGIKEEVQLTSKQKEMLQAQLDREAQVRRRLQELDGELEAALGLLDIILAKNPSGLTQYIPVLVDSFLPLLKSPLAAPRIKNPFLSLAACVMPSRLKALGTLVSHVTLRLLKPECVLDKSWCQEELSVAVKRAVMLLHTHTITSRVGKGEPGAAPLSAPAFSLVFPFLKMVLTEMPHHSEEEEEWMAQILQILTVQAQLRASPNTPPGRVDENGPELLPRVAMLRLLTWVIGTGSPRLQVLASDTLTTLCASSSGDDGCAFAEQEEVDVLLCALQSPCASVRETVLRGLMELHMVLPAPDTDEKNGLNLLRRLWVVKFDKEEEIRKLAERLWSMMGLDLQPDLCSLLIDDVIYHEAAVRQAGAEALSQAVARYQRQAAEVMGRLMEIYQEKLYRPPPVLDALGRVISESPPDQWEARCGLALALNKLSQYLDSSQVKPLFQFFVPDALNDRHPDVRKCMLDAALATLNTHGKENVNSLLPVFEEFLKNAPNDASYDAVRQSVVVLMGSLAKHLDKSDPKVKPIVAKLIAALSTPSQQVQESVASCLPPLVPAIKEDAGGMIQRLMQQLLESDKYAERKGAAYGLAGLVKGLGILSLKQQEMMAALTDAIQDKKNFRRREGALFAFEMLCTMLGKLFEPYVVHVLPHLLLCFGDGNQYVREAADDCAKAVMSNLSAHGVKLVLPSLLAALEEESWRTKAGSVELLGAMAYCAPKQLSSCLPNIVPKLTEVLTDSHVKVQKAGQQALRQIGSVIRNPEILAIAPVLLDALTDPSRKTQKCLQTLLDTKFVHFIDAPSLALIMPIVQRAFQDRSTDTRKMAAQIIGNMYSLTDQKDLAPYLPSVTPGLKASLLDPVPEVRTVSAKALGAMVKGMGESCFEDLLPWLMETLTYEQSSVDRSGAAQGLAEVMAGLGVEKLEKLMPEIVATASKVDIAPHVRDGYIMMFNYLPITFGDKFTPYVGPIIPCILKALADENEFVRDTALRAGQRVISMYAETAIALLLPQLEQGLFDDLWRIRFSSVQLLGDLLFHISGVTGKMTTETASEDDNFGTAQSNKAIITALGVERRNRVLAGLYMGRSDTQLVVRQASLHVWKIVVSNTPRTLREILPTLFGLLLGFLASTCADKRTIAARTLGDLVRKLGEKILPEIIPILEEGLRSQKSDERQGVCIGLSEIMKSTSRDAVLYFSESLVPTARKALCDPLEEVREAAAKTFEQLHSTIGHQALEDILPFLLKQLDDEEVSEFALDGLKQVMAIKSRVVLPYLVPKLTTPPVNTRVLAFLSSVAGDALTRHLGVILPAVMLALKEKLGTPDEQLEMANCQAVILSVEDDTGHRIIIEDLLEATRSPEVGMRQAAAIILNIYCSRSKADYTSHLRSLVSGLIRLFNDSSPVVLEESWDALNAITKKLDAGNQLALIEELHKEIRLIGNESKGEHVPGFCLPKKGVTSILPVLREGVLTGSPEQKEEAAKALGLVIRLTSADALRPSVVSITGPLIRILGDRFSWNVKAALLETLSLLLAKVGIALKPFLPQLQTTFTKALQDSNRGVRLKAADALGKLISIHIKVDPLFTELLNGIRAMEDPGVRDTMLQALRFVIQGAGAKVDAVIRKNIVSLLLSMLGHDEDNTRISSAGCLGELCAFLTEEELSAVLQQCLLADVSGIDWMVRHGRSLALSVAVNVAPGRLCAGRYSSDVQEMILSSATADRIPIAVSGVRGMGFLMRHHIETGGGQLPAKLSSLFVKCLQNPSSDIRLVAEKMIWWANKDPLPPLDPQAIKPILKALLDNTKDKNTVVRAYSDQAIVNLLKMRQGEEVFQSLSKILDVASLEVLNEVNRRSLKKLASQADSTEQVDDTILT
T10 sequence (P23526 whole entry): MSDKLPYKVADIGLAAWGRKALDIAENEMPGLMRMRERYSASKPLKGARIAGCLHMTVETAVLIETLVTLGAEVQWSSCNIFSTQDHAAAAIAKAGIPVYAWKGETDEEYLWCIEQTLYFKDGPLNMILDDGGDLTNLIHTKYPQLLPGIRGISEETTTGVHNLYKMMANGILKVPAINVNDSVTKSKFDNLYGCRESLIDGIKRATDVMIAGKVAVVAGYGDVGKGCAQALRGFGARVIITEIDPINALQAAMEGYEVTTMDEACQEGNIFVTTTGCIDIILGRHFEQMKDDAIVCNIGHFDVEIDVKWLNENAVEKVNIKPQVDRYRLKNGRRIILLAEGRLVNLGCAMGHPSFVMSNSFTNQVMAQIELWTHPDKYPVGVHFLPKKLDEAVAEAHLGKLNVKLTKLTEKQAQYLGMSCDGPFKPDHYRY

For NCCCNc1ccc(C(=O)NC(CCC(=O)O)C(=O)O)cc1 (centres unmarked) [compound 7], the “fold changes relative to vehicle control” value [1] was 0.93, the “fold changes relative to vehicle control” value [2] was 1.04 and the “fold changes relative to vehicle control” value [3] was 0.92. For the same molecule, the “fold changes relative to vehicle control” value [4] was 1.03, the “fold changes relative to vehicle control” value [5] was 1.15 and the “fold changes relative to vehicle control” value [6] was 1.02. The “fold changes relative to vehicle control” value [7] was 0.87, the “fold changes relative to vehicle control” value [8] was 1.02 and the “fold changes relative to vehicle control” value [9] was 1.19. For the same molecule, the “fold changes relative to vehicle control” value [10] was 0.99, the “fold changes relative to vehicle control” value [11] was 0.95 and the “fold changes relative to vehicle control” value [12] was 0.87. The “fold changes relative to vehicle control” value [13] was 0.85 and the “fold changes relative to vehicle control” value [14] was 1.18.
